Values quoted from earlier work as cited in US20070293479A1, “OLANZAPINE PHARMACEUTICAL COMPOSITION” (priority 2006, published 2007).

Conditions: free base, at pH 6.8

In the case of `Cc1cc2c(s1)Nc1ccccc1N=C2N1CCN(C)CC1` [Olanzapine], the solubility is listed as “about 0.02 mg/ml”.
